# Tests used:
# Experiment in all cases: Test B pre-/postemergence plant response
# Type in all cases: in vivo
# [1] = test system: blackgrass (Alopecurus myosuroides); conditions: for Blackgrass plant response rating: 8 g ai/ha
# Method in brief: (§1)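 Visual scoring from 0 (no effect) to 100 (complete control) against untreated controls was done 13 to 15 days after greenhouse treatment. Chemicals were formulated in a surfactant-containing non-phytotoxic solvent and applied to soil preemergence or to 1- to 4-leaf (2-18 cm) plants postemergence.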
# [2] = test system: morningglory (Ipomoea coccinea)
# Method in brief: as §1
# [3] = test system: corn (Zea mays)
# Method in brief: as §1
# [4] = test system: lambsquarters (Chenopodium album)
# Method in brief: as §1
# [5] = test system: yellow nutsedge (Cyperus esculentus)
# Method in brief: as §1
# [6] = test system: surinam grass (Brachiaria decumbens)
# Method in brief: as §1
# [7] = test system: kochia (Kochia scoparia); conditions: for Kochia plant response rating: postemergence, 0-100 scale; for Plant response rating, Kochia: Postemergence
# Method in brief: as §1
# [8] = test system: Italian ryegrass (Lolium multiflorum)
# Method in brief: as §1
# [9] = test system: bermudagrass (Cynodon dactylon); conditions: for Bermudagrass plant response rating: 8 g ai/ha
# Method in brief: as §1
# [10] = test system: eastern black (E.B.) nightshade (Solanum ptycanthum); conditions: Preemergence; for Nightshade, E. B. plant response rating: scale 0 to 100
# Method in brief: as §1
# [11] = test system: common ragweed (Ambrosia elation)
# Method in brief: as §1
# [12] = test system: johnsongrass (Sorghum halepense)
# Method in brief: as §1
# [13] = test system: giant foxtail (Setaria faberii)
# Method in brief: as §1
# [14] = test system: wild oat (Avena fatua)
# Method in brief: as §1
# [15] = Postemergence, 16 g ai/ha, scale 0 to 100
# [16] = Postemergence, 31 g ai/ha, scale 0 to 100
# [17] = Postemergence, 62 g ai/ha, scale 0 to 100, 0 no effect, 100 complete control
# [18] = Preemergence, 16 g ai/ha, scale 0 to 100 (0 no effect, 100 complete control)
# [19] = Preemergence, 31 g ai/ha, scale 0 to 100 (0 no effect, 100 complete control)
# [20] = Preemergence, 62 g ai/ha, 0 to 100 scale, 0 no effect, 100 complete control
# [21] = 8 g ai/ha, postemergence, 0-100 scale
# [22] = 16 g ai/ha, postemergence, 0-100 scale
# [23] = Preemergence, 8 g ai/ha, scale 0 to 100
# [24] = Preemergence, 16 g ai/ha, scale 0 to 100
compound,measurement,setting,value
CCCc1cc(-c2ccc(C(F)(F)F)cc2)nn1-c1c(O)cnn(C)c1=O [Compound 72],Blackgrass plant response rating,"[1]; postemergence, 0-100 scale",80
same,"Plant response rating, Blackgrass",[1]; [15],95
same,"Plant response rating, Blackgrass",[1]; [16],98
same,"Plant response rating, Blackgrass",[1]; [17],100
same,"Plant response rating, Blackgrass",[1]; [18],90
same,"Plant response rating, Blackgrass",[1]; [19],95
same,"Plant response rating, Blackgrass",[1]; [20],100
same,Blackgrass plant response rating,"[1]; Preemergence, scale 0 to 100",60
same,Morningglory plant response rating,[2]; [21],0
same,Morningglory plant response rating,[2]; [22],0
same,"Plant response rating, Morningglory",[2]; [16],0
same,"Plant response rating, Morningglory",[2]; [17],0
same,"Plant response rating, Morningglory",[2]; [19],0
same,"Plant response rating, Morningglory",[2]; [20],0
same,Morningglory plant response rating,[2]; [23],0
same,Morningglory plant response rating,[2]; [24],0
same,Corn plant response rating,[3]; [21],50
same,"Plant response rating, Corn",[3]; [15],90
same,"Plant response rating, Corn",[3]; [16],90
same,"Plant response rating, Corn",[3]; [17],100
same,"Plant response rating, Corn",[3]; [19],85
same,"Plant response rating, Corn",[3]; [20],100
same,Corn plant response rating,[3]; [23],70
same,Corn plant response rating,[3]; [24],80
same,Lambsquarters plant response rating,[4]; [21],0
same,Lambsquarters plant response rating,[4]; [22],0
same,"Plant response rating, Lambsquarters",[4]; [16],0
same,"Plant response rating, Lambsquarters",[4]; [17],0
same,"Plant response rating, Lambsquarters",[4]; [19],30
same,"Plant response rating, Lambsquarters",[4]; [20],40
same,Lambsquarters plant response rating,[4]; [23],0
same,Lambsquarters plant response rating,[4]; [24],0
same,"Nutsedge, Yellow plant response rating",[5]; [21],0
same,"Nutsedge, Yellow plant response rating",[5]; [22],0
same,"Plant response rating, Nutsedge, Yellow",[5]; [16],0
same,"Plant response rating, Nutsedge, Yellow",[5]; [17],0
same,"Plant response rating, Nutsedge, Yellow",[5]; [19],0
same,"Plant response rating, Nutsedge, Yellow",[5]; [20],0
same,"Nutsedge, Yellow plant response rating",[5]; [23],0
same,"Nutsedge, Yellow plant response rating",[5]; [24],0
same,Surinam Grass plant response rating,[6]; [21],95
same,Surinam Grass plant response rating,[6]; [22],95
same,"Plant response rating, Surinam Grass",[6]; [16],98
same,"Plant response rating, Surinam Grass",[6]; [17],100
same,"Plant response rating, Surinam Grass",[6]; [19],85
same,"Plant response rating, Surinam Grass",[6]; [20],100
same,Surinam Grass plant response rating,[6]; [24],85
same,Kochia plant response rating,[7]; 8 g ai/ha,0
same,Kochia plant response rating,[7]; 16 g ai/ha,0
same,"Plant response rating, Kochia","[7]; 31 g ai/ha, scale 0 to 100",0
same,"Plant response rating, Kochia","[7]; 62 g ai/ha, scale 0 to 100, 0 no effect, 100 complete control",0
same,"Ryegrass, Italian plant response rating",[8]; [21],80
same,"Ryegrass, Italian plant response rating",[8]; [22],100
same,"Plant response rating, Ryegrass, Italian",[8]; [16],100
same,"Plant response rating, Ryegrass, Italian",[8]; [17],100
same,"Plant response rating, Ryegrass, Italian",[8]; [19],100
same,"Plant response rating, Ryegrass, Italian",[8]; [20],100
same,"Ryegrass, Italian plant response rating",[8]; [23],75
same,"Ryegrass, Italian plant response rating",[8]; [24],90
same,Bermudagrass plant response rating,"[9]; postemergence, 0-100 scale",0
same,"Plant response rating, Bermudagrass",[9]; [15],50
same,"Plant response rating, Bermudagrass",[9]; [16],60
same,"Plant response rating, Bermudagrass",[9]; [17],80
same,Bermudagrass plant response rating,"[9]; Preemergence, scale 0 to 100 (0 no effect, 100 complete control)",40
same,"Plant response rating, Bermudagrass",[9]; [18],100
same,"Plant response rating, Bermudagrass",[9]; [19],100
same,"Plant response rating, Bermudagrass",[9]; [20],100
same,"Plant response rating, Nightshade, E. B.","[10]; 31 g ai/ha, scale 0 to 100 (0 no effect, 100 complete control)",0
same,"Plant response rating, Nightshade, E. B.","[10]; 62 g ai/ha, 0 to 100 scale, 0 no effect, 100 complete control",30
same,"Nightshade, E. B. plant response rating",[10]; 8 g ai/ha,0
same,"Nightshade, E. B. plant response rating",[10]; 16 g ai/ha,0
same,Ragweed plant response rating,[11]; [21],0
same,Ragweed plant response rating,[11]; [22],0
same,"Plant response rating, Ragweed",[11]; [16],0
same,"Plant response rating, Ragweed",[11]; [17],0
same,"Plant response rating, Ragweed",[11]; [19],0
same,"Plant response rating, Ragweed",[11]; [20],10
same,Ragweed plant response rating,[11]; [23],0
same,Ragweed plant response rating,[11]; [24],0
same,Johnsongrass plant response rating,[12]; [21],70
same,Johnsongrass plant response rating,[12]; [22],75
same,"Plant response rating, Johnsongrass",[12]; [17],100
same,"Plant response rating, Johnsongrass",[12]; [19],95
same,"Plant response rating, Johnsongrass",[12]; [20],100
same,Johnsongrass plant response rating,[12]; [23],50
same,Johnsongrass plant response rating,[12]; [24],55
same,"Foxtail, Giant plant response rating",[13]; [21],95
same,"Plant response rating, Foxtail, Giant",[13]; [15],100
same,"Plant response rating, Foxtail, Giant",[13]; [16],100
same,"Plant response rating, Foxtail, Giant",[13]; [17],100
same,"Plant response rating, Foxtail, Giant",[13]; [19],100
same,"Plant response rating, Foxtail, Giant",[13]; [20],100
same,"Foxtail, Giant plant response rating",[13]; [23],70
same,"Foxtail, Giant plant response rating",[13]; [24],85
same,"Oat, Wild plant response rating",[14]; [21],100
same,"Oat, Wild plant response rating",[14]; [22],100
same,"Plant response rating, Oat, Wild",[14]; [16],100
same,"Plant response rating, Oat, Wild",[14]; [17],100
same,"Plant response rating, Oat, Wild",[14]; [19],95
same,"Plant response rating, Oat, Wild",[14]; [20],98
same,"Oat, Wild plant response rating",[14]; [23],60
same,"Oat, Wild plant response rating",[14]; [24],80

# Source: patent US20100267561A1, “HERBICIDAL PYRIDAZINONE DERIVATIVES” (priority 2007, published 2010)
